Counter-ions that a name gives are not always drawn.
Assays:
[1] = test system: HeLa cells; assay: Antiproliferative activity in parental HeLa cells; type: cell-based; details: Homo sapiens, read-out: IC50 ± SD HeLa
[2] = test system: MDA-MB-435 cancer cells; details: earlier report; cited from earlier work
[3] = test system: SK-OV-3 cells; assay: Antiproliferative activity in parental SK-OV-3 cells; type: cell-based; details: Homo sapiens, SK-OV-3, read-out: IC50 ± SD SK-OV-3
[4] = test system: cellular microtubules in A-10 cells; assay: Microtubule depolymerizing effects, cell-based phenotypic screen; details: for microtubule depolymerizing activity: at 10000 nM, A-10 cells
[5] = test system: U251 cancer cells; assay: U251 cytotoxicity assay; type: cell-based, human; details: versus compound 5
[6] = test system: NCI 60 cancer cell lines; assay: NCI 60 cell line panel; type: cell-based; details: values in Table S2, not available
[7] = test system: U251 human glioma cells implanted into nude mice; assay: U251 flank xenograft study; type: in vivo; details: 17.5 mg/kg twice week
[8] = Maximal tolerated dose, dose escalation study; type: in vivo; details: nude mice, escalation until >5% weight loss

COc1ccc(/C=C\c2cc(OC)c(OC)c(OC)c2)cc1O [CA-4, Combretastatin A-4]
IC50 [1]: 4.7 ± 0.2 nM

COc1ccc(Nc2nc(C)nc3c2CC(C)C3)cc1 (stereo not drawn) [Compound 2]
antiproliferative and microtubule depolymerizing activity [2]: almost inactive

COc1ccc(N(C)c2nc(C)nc3c2CCC3)cc1 [Compound 3, 2,4-dimethyl-4-(4′-methoxy)phenyl cyclopenta[d]pyrimidine]
IC50 [1]: 12 ± 1.2 nM | IC50 [3]: 11.3 ± 0.2 nM

COc1ccc2c(N(C)c3nc(C)nc4c3CCC4)cccc2c1 [Compound 4, N-(6’-methoxynaphthyl-1’)-N,2-dimethyl-cyclopenta[d]pyrimidin-4-amine hydrochloric acid salt]
microtubule depolymerizing activity [4]: no microtubule depolymerizing activity | fold less potent/active than 5 in the U251 cytotoxicity assay [5]: 5 fold

COc1cccc2cc(N(C)c3nc(C)nc4c3CCC4)ccc12 [Compound 5, N-(5’-methoxynaphthyl-2’)-N,2-dimethyl-cyclopenta[d]pyrimidin-4-amine hydrochloric acid salt]
fold more potent than CA-4 in microtubule depolymerizing activity ([4]; versus CA-4): about 3 fold | GI50s in the NCI 60 cell line panel [6]: potent GI50s against most of the NCI 60 cancer cell lines | toxicity as measured by animal weight ([7]; U251 xenograft mice): without significant toxicity | tumor growth (tumor volume) in U251 xenograft ([7]; started 7 days after implantation): inhibited tumor growth as compared with the carrier or temozolomide | Maximal tolerated dose (MTD) [8]: 17.5 mg/kg/2x wk

COc1ccc(N(C)c2nc(C)nc3c2CCC3)c2ccccc12 [Compound 6, N-(4’-methoxynaphthyl-1’)-N,2-dimethyl-cyclopenta[d]pyrimidin-4-amine]
fold less potent than 5 for microtubule depolymerizing activity ([4]; versus compound 5): more than 100 fold | fold less potent/active than 5 in the U251 cytotoxicity assay [5]: 2 fold

COc1cccc2c(N(C)c3nc(C)nc4c3CCC4)cccc12 [Compound 7, N-(5’-methoxynaphthyl-1’)-N,2-dimethyl-cyclopenta[d]pyrimidin-4-amine hydrochloric acid salt]
fold less potent/active than 5 in the U251 cytotoxicity assay [5]: 2 fold

COc1ccc2c(N(C)c3ncnc4c3CCC4)cccc2c1 [Compound 8, N-(6’-methoxynaphthyl-1’)-N-methyl-cyclopenta[d]pyrimidin-4-amine]
microtubule depolymerizing activity [4]: no microtubule depolymerizing activity | fold less potent/active than 5 in the U251 cytotoxicity assay [5]: 7 fold

COc1cccc2cc(N(C)c3ncnc4c3CCC4)ccc12 [Compound 9, N-(5’-methoxynaphthyl-2’)-N-methyl-cyclopenta[d]pyrimidin-4-amine hydrochloric salt]
fold less potent/active than 5 in the U251 cytotoxicity assay [5]: 4 fold

Cn1nnc2c(C(N)=O)ncn2c1=O [temozolomide, reference compound]
Maximal tolerated dose (MTD) [8]: 50 mg/kg/wk
